Paper PMC8692993, “PPARα and PPARγ activation is associated with pleural mesothelioma invasion but therapeutic inhibition is ineffective” (iScience, 2021)

Experiments:
[1] = system: HAP1, HAP1 PPARA KO, and HAP1 PPARG KO cell lines; experiment: MTT cell metabolic activity assay, HAP1 lines; format: cell-based, human
Experimental: Cells were harvested and seeded in 96-flat well plates (Corning) at a density of 5 x 10^4 cells/mL overnight. Media was removed and 100 μL media with GW6471 or GW9662 at indicated concentrations was added to each well. Cell viability and toxicity were measured at 48 h. Cells were incubated with 50 μL of a 2 mg/mL solution of (3-(4,5-dimethyl-thiazole-2-yl)-2,5-[…] tetrazolium (MTT, Sigma-Aldrich) in PBS for 4 h and then exposed to 100 μL dimethyl sulfoxide (DMSO; Sigma-Aldrich). Cell viability was measured by absorption at 570 nm in a microplate spectrophotometer (Spectromax 250 plate reader). Results are shown as relative cell viability.

[2] = system: JU77 human mesothelioma cell line; experiment: Soft agar colony formation assay; format: cell-based; conditions: JU77, GW6471 0.5-8 μM, p <0.05
Experimental: Cells were incubated with different concentrations of GW6471 (from 0.5 μM to 8 μM) for a soft agar colony formation assay ([Horibata et al., 2015]). Briefly, 3% 2-hydroxyethyl agarose (agarose, A4018; Sigma-Aldrich, Australia) was prepared as stock solution. The bottom layer was prepared by incubating 20% agarose gel in R10 complete medium, RPMI 1640 (Invitrogen) supplemented with 10% foetal calf serum (FCS; Life Technologies), 20 mM HEPES (Sigma-Aldrich), 0.05 mM 2-mercaptoethanol (pH 7.2; Merck, Kilsyth, Australia), 60 μg/mL penicillin (Life Technologies), 50 μg/mL gentamicin (David Bull Labs), for a final concentration of 0.6%, 2mL per well, at 4°C for 1 h to allow the mixture to solidify, then incubating at 37°C for at least 30 min before seeding the cells. The cell-containing layer (10% agarose gel in R10 complete medium for a final concentration of 0.3%, 1 mL per well) was prepared with a concentration of 1,000 cells/mL. 1 mL of cells was then transfer to each well. […]
Colony counting was performed by adding 1 mL of 0.005% crystal violet (C0775; Sigma-Aldrich, Australia) in PBS on top of each well and incubating at room temperature for 24 h. Pictures were taken and colonies counted with ImageJ (v1.52a).

AB1-Luc = experiment: Intraperitoneal AB1-Luc mesothelioma model, bioluminescence and histology; format: in vivo, BALB/c mice; conditions: for Tumor growth (bioluminescence, average radiance): versus controls
Experimental: Cells were trypsinized and washed two times in phosphate buffer saline (PBS) and counted with trypan blue dye. For the SC tumour model, mice were shaved on the right-hand flank and inoculated with 5x10^5 AB1 or 1x10^6 AE17 cells suspended in 100 μL PBS. Tumour volume (mm^3) was monitored with callipers. For the IPL tumour model, mice were anaesthetised under continuous isofluorane and inoculated with 5 x 10^5 AB1 or 1 x 10^6 AE17 cells suspended in 200 μL PBS into the pleural space as previously described ([Lansley et al., 2015]) Tumour size was determined by weighting together the tumour with the lungs minus the weight of aged matched healthy lungs. For the IP tumour model, mice where inoculated in the intraperitoneal cavity on the right flank with 5x10^5 AB1-Luc cells suspended in 200 μL PBS. Tumour size was determined by in vivo imaging system (IVIS), see below. All mice were euthanized in accordance with animal ethics guidelines.
Female BALB/cJAusb mice (10–12 weeks) were inoculated IP with 5 x 10^5 AB1-Luc on their right flank. Mice were randomly allocated to the different groups on the first treatment day. Treatment with ABT + GW6471 or GW6471 alone started on day 4 after tumour inoculation. IP Injections and concentrations were used as previously described in the “Mouse pharmacokinetic studies” section in experimental model and subject details. Initial mouse weight was measured immediately before the first injection, and it was used to calculate weight change daily. Mice were dosed for a maximum of seven consecutive days. In vivo imaging system (IVIS) (see below) was performed on days 3 (before treatment), 7 (during treatment) and 11 (after treatment). Mice were euthanized on day 11 in accordance with animal ethics guidelines and organs were harvested for staining.
XenoLight D-Luciferin potassium salt (PerkinElmer, VIC, Australia) was used at a 150 mg/kg concentration dissolved in sterile PBS. Approximately 150 μL (15 mg/mL concentration) was injected subcutaneously per mouse. […]

renal cell carcinoma = system: renal cell carcinoma; set-up: method as in Abu Aboud et al., 2015; conditions: 25 μM; ref Abu Aboud et al., 2015; cited from earlier work

In the case of `CCC(=O)NC[C@H](Cc1ccc(OCCc2nc(-c3ccccc3)oc2C)cc1)N/C(C)=C\C(=O)c1ccc(C(F)(F)F)cc1` [GW6471], the “Cellular proliferation (MTT)” value ([1]; HAP1, HAP1 PPARA KO, HAP1 PPARG KO, 0.391-100 μM) is reported as “inhibited cellular proliferation at micromolar concentrations”, the “Growth inhibition compared between parental and PPARA/PPARG KO cells” value ([1]; HAP1 versus HAP1 PPARA KO and HAP1 PPARG KO) is reported as “identical” and the “Number of colonies formed” value [2] is reported as “significant reduction in the number of colonies formed”. For the same compound, the “Tumor growth (bioluminescence, average radiance)” value (AB1-Luc; GW6471 10 mg/kg IP daily from day 4, with ABT 50 mg/kg pre-treatment (ABT + GW6471)) was “no significant effect on tumor growth”, the “Tumor growth (bioluminescence, average radiance)” value (AB1-Luc; GW6471 10 mg/kg IP daily from day 4, without ABT) was “no significant effect on tumor growth” and the “Mesothelioma invasion and proliferation in vivo (histology)” value (AB1-Luc; GW6471 with or without ABT, all mice showed invasion into intestine and pancreas) was “no impact on mesothelioma invasion and proliferation in vivo”. The “Cell-cycle arrest and apoptosis” value (renal cell carcinoma) was “significant cell-cycle arrest and apoptosis”.
